Laboratory results: the supplement of paper PMC10307832

Legend:
Assay in all cases: relative viability (nuclei count vs DMSO), 5 days (fraction); higher = more cells survive
Axitinib + Trametinib = compound: CNC(=O)c1ccccc1Sc1ccc2c(/C=C/c3ccccn3)n[nH]c2c1 [Axitinib] + CC(=O)Nc1cccc(-n2c(=O)n(C3CC3)c(=O)c3c(Nc4ccc(I)cc4F)n(C)c(=O)c(C)c32)c1 [Trametinib] (partner 0.02 µM)
Outline: (§1)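 Relative viability is defined as nuclei in treated wells over nuclei in vehicle wells. Duplicate plates were run and medians reported. Lung cancer cell lines in 1536-well plates were dosed by pin tool one day after seeding, with one drug or with a fixed anchor-drug dose plus five library-drug doses (not always all listed) in √10 steps, and nuclei were counted after 5 days.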

Axitinib + Olaparib = compound: CNC(=O)c1ccccc1Sc1ccc2c(/C=C/c3ccccn3)n[nH]c2c1 [Axitinib] + O=C(c1cc(Cc2n[nH]c(=O)c3ccccc23)ccc1F)N1CCN(C(=O)C2CC2)CC1 [Olaparib] (partner 8 µM)
Outline: as §1

[1] = compound: CC1=CC=C(C=C1)C(=O)CN2C3=C(CCCC3)SC2=N [Pifithrin_alpha] + Cc1nc(NC(=O)N2CCC[C@H]2C(N)=O)sc1-c1ccnc(C(C)(C)C(F)(F)F)c1 [Alpelisib] (partner 2 µM)
Outline: as §1

Bemcentinib + Lapatinib = compound: Nc1nc(Nc2ccc3c(c2)CC[C@@H](N2CCCC2)CC3)nn1-c1cc2c(nn1)-c1ccccc1CCC2 [Bemcentinib] + CS(=O)(=O)CCNCc1ccc(-c2ccc3ncnc(Nc4ccc(OCc5cccc(F)c5)c(Cl)c4)c3c2)o1 [Lapatinib] (partner 2 µM)
Outline: as §1

| Cell Line | relative viability (Axitinib + Trametinib; first compound 0.005 µM) | relative viability (Axitinib + Trametinib; first compound 0.01581 µM) | relative viability (Axitinib + Trametinib; first compound 0.05 µM) | relative viability (Axitinib + Trametinib; first compound 0.1581 µM) | relative viability (Axitinib + Trametinib; first compound 0.5 µM) | relative viability (Axitinib + Olaparib; first compound 0.005 µM) | relative viability (Axitinib + Olaparib; first compound 0.01581 µM) | relative viability (Axitinib + Olaparib; first compound 0.05 µM) | relative viability (Axitinib + Olaparib; first compound 0.1581 µM) | relative viability (Axitinib + Olaparib; first compound 0.5 µM) | relative viability ([1]; first compound 1 µM) | relative viability ([1]; first compound 3.162 µM) | relative viability ([1]; first compound 10 µM) | relative viability ([1]; first compound 31.62 µM) | relative viability ([1]; first compound 100 µM) | relative viability (Bemcentinib + Lapatinib; first compound 0.04 µM) | relative viability (Bemcentinib + Lapatinib; first compound 0.1265 µM) | relative viability (Bemcentinib + Lapatinib; first compound 0.4 µM) | relative viability (Bemcentinib + Lapatinib; first compound 1.265 µM) | relative viability (Bemcentinib + Lapatinib; first compound 4 µM) |
| --- | --- | --- | --- | --- | --- | --- | --- | --- | --- | --- | --- | --- | --- | --- | --- | --- | --- | --- | --- | --- |
| ChaGo-K-1 | 0.872 | 0.874 | 0.902 | 0.858 | 0.887 | 0.473 | 0.445 | 0.412 | 0.441 | 0.438 |  |  |  |  |  |  |  |  |  |  |
| EBC-1 |  |  |  |  |  | 0.788 | 0.648 | 0.768 | 0.69 | 0.769 | 0.821 | 0.834 | 0.683 | 0.558 | 0.602 | 0.203 | 0.189 | 0.302 | 0.204 | 0.221 |
| EKVX | 0.286 | 0.29 | 0.347 | 0.323 | 0.406 | 0.979 | 0.826 | 0.902 | 0.883 | 1.03 | 0.918 | 0.743 | 0.567 | 0.583 | 0.548 | 0.186 | 0.218 | 0.199 | 0.213 | 0.196 |
| EMC-BAC-2 | 0.952 | 0.905 | 0.898 | 0.926 | 0.88 | 0.5 | 0.542 | 0.516 | 0.512 | 0.508 | 0.719 | 0.776 | 0.738 | 0.56 | 0.822 | 0.917 | 0.959 | 0.957 | 0.878 | 0.898 |
| EPLC-272H | 0.312 | 0.273 | 0.255 | 0.249 | 0.289 | 0.845 | 0.927 | 0.884 | 0.475 | 1.13 |  | 0.965 | 0.914 | 0.934 | 1.02 |  | 0.958 | 1.01 | 0.962 | 1.02 |
